Legend:
[1] = target: T1, wild-type Androgen Receptor (AR-wt) (Homo sapiens (Human), UniProt P10275); experiment: LNCaP-AR-wt ANT reporter assay (antagonist mode); assay type: cell-based; conditions: for IC50: read-out: LNCaP-AR-wt ANT pIC50 (converted); for Emax: maximum % inhibition of R1881 control response over the tested concentration range, read-out: LNCaP-AR-wt ANT MAX % Inh
[2] = target: T1, wild-type Androgen Receptor (AR-wt); experiment: LNCaP-AR-wt AG reporter assay (agonist mode); assay type: cell-based; conditions: for EC50: agonist mode, pEC50 = −Log10(EC50 in Molar), read-out: LNCaP-AR-wt AG pEC50 (converted); for Emax: maximum % stimulation (agonist response) over the tested concentration range, read-out: LNCaP-AR-wt AG MAX % Stim
[3] = target: T2, F876L mutant Androgen Receptor (AR-F876L) (Homo sapiens (Human), UniProt P10275, F877L); experiment: LNCaP-AR-F876L ANT reporter assay (antagonist mode); assay type: cell-based; conditions: for IC50: read-out: LNCaP-AR-F876L ANT pIC50 (converted); for Emax: maximum % inhibition of R1881 control response over the tested concentration range, read-out: LNCaP-AR-F876L ANT MAX % Inh
[4] = target: T2, F876L mutant Androgen Receptor (AR-F876L); experiment: LNCaP-AR-F876L AG reporter assay (agonist mode); assay type: cell-based; conditions: for EC50: agonist mode, pEC50 = −Log10(EC50 in Molar), read-out: LNCaP-AR-F876L AG pEC50 (converted); for Emax: maximum % stimulation (agonist response) over the tested concentration range, read-out: LNCaP-AR-F876L AG MAX % Stim
rGABA-gated Cl− channel = experiment: GABA-Gated Cl Channel Antagonist Radioligand Binding Assay; set-up: species or system rat; conditions: 10 μM single point, [35S]-TBPS, cerebral cortex membrane homogenates
Procedure, shortened: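 Rat cerebral cortex membranes (120 μg protein) incubated 120 min at 22° C with 3 nM […] in 50 mM Na2HPO4/KH2PO4 pH 7.4, 500 mM NaCl; nonspecific binding defined with 20 μM picrotoxinin. Bound label counted after filtration; values are percent inhibition of specific binding at 10 μM compound.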

[5] = antagonist mode, pIC50 = −Log10(IC50 in Molar)

T2 sequence (P10275 whole entry F877L): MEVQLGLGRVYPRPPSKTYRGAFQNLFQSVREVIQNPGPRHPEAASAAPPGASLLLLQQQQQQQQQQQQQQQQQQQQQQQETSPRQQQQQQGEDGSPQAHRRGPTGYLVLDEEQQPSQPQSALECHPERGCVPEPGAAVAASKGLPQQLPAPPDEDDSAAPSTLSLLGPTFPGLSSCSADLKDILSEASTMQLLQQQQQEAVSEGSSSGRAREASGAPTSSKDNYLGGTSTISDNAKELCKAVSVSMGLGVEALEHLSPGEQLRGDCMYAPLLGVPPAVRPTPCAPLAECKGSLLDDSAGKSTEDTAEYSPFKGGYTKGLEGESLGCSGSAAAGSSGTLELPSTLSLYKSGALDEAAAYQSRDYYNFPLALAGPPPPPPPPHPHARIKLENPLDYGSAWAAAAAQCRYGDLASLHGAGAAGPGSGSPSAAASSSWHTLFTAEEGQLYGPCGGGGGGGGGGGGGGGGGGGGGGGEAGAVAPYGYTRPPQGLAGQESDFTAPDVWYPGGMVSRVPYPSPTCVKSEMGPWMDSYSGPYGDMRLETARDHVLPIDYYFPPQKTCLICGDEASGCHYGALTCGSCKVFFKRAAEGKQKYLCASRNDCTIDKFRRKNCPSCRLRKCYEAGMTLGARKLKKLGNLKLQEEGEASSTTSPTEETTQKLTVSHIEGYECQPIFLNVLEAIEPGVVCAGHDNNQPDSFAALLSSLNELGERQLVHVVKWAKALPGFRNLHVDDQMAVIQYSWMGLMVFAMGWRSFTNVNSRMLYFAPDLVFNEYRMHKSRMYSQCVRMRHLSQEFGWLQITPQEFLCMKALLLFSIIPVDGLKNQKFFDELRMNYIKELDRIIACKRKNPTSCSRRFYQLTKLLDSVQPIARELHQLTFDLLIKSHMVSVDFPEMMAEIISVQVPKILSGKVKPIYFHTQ
T1 sequence (P10275 whole entry): as the sequence (P10275 whole entry F877L) above, with L877F counted along it

| IC50 [1, 5] [nM] | Emax [1] [%] | EC50 [2] [nM] | Emax [2] [%] | IC50 [3, 5] [nM] | Emax [3] [%] | EC50 [4] [nM] | Emax [4] [%] | rGABA-gated Cl− channel % inh @10 μM (rGABA-gated Cl− channel) [%] | SMILES | LNCaP-AR-wt ANT pIC50 [1, 5] | LNCaP-AR-F876L ANT pIC50 [3, 5] |
| --- | --- | --- | --- | --- | --- | --- | --- | --- | --- | --- | --- |
| 302 | 101 | > 15100 | 0.1 | 126 | 101 | > 15100 | 0.6 | 77.3 | N#Cc1ncc(N2C(=O)C3(CCC3)N(c3ccc(OC4CC5(CCN5)C4)cc3)C2=S)cc1C(F)(F)F (stereo not drawn) [Cpd 148, 5-[8-[4-(3-azaspiro[3.3]heptan-6-yloxy)phenyl]-5-oxo-7-thioxo-6,8-diazaspiro[3.4]octan-6-yl]-3-(trifluoromethyl)pyridine-2-carbonitrile] |  |  |
| 81.3 | 99.8 | > 15100 | 0.5 | 105 | 97.9 | > 15100 | 1.5 | 35.4 | CC(C)CCN1CCC(Oc2ccc(N3C(=S)N(c4cnc(C#N)c(Cl)c4)C(=O)C34CCC4)cn2)CC1 [Cpd 149, 3-chloro-5-[8-[6-[(1-isopentyl-4-piperidyl)oxy]-3-pyridyl]-5-oxo-7-thioxo-6,8-diazaspiro[3.4]octan-6-yl]pyridine-2-carbonitrile] |  |  |
| 468 | 102 | > 15100 | -0.1 | 269 | 100 | > 15100 | -0.1 | −22.2 | COc1cc(N2C(=O)C3(CCC3)N(c3ccc(OC4CCNCC4)cc3)C2=S)cnc1C#N [Cpd 154, 3-methoxy-5-[5-oxo-8-[4-(4-piperidyloxy)phenyl]-7-thioxo-6,8-diazaspiro[3.4]octan-6-yl]pyridine-2-carbonitrile] |  |  |
| 1050 | 97.2 | > 15100 | 0.2 | 468 | 99.3 | > 15100 | 0.3 | 77.9 | N#Cc1ncc(N2C(=O)C3(CCC3)N(c3ccc4nn(CCO)cc4c3)C2=S)cc1C(F)(F)F [Cpd 161, 5-[8-[2-(2-hydroxyethyl)indazol-5-yl]-5-oxo-7-thioxo-6,8-diazaspiro[3.4]octan-6-yl]-3-(trifluoromethyl)pyridine-2-carbonitrile] |  |  |
| 324 | 96.4 | > 15100 | -0.1 | 158 | 99.2 | > 15100 | 0 | 48.5 | N#Cc1ncc(N2C(=O)C3(CCC3)N(c3ccc4nn(CCO)cc4c3)C2=S)cc1Cl [Cpd 162, 3-chloro-5-[8-[2-(2-hydroxyethyl)indazol-5-yl]-5-oxo-7-thioxo-6,8-diazaspiro[3.4]octan-6-yl]pyridine-2-carbonitrile] |  |  |
| 186 | 99.6 | > 15100 | 0.2 | 112 | 100 | > 15100 | 0.2 | 80.8 | COCCn1cc2cc(N3C(=S)N(c4cnc(C#N)c(Cl)c4)C(=O)C34CCC4)ccc2n1 [Cpd 169, 3-chloro-5-[8-[2-(2-methoxyethyl)indazol-5-yl]-5-oxo-7-thioxo-6,8-diazaspiro[3.4]octan-6-yl]pyridine-2-carbonitrile] |  |  |

| SMILES | IC50 [1, 5] [nM] | Emax [1] [%] | EC50 [2] [nM] | Emax [2] [%] | IC50 [3, 5] [nM] | Emax [3] [%] | EC50 [4] [nM] | Emax [4] [%] | rGABA-gated Cl− channel % inh @10 μM (rGABA-gated Cl− channel) [%] | LNCaP-AR-wt ANT pIC50 [1, 5] | LNCaP-AR-F876L ANT pIC50 [3, 5] |
| --- | --- | --- | --- | --- | --- | --- | --- | --- | --- | --- | --- |
| CN1CCC(Oc2ncc(N3C(=S)N(c4cnc(C#N)c(C(F)(F)F)c4)C(=O)C34CCC4)cn2)CC1 [Cpd 152, 5-[8-[2-[(1-methyl-4-piperidyl)oxy]pyrimidin-5-yl]-5-oxo-7-thioxo-6,8-diazaspiro[3.4]octan-6-yl]-3-(trifluoromethyl)pyridine-2-carbonitrile] |  | 101 | > 15100 | 0.2 |  | 99.9 | > 15100 | 0.1 | 15.1 | 6.38 | 6.37 |

— patent US10981926B2 (Janssen Pharmaceutica NV, priority 2016, dated 2021)
